{"source": "patent US20090325155A1", "about": "“Aureobasin a synthetase” (priority 2005, published 2009)", "origin": "cited, not measured here", "key": {"Aspergillus spp.": {"tested_on": "Aspergillus spp.", "settings": "third major human pathogen"}, "[1]": {"tested_on": "a number of fungi, including yeasts, such as Saccharomyces cerevisiae and Schizosaccharomyces pombe", "settings": "low concentration toxic against a number of fungi"}}, "note": "Starred links: 1 amine or outer side, 2 acyl side, 3 side chain; linkers in the order of their positions; H or OH if unused. Non-standard residues stand in square brackets, D forms with d. Residues, ends and D or L forms follow the SMILES beside them. ξ: configuration not given here. NMeVal(β-OH) = CN[C@H](C(=O)O)C(C)(C)O; X1 = CCC(C)[C@@H](O[*:1])C(=O)[*:2]; NMeF = CN[C@@H](Cc1ccccc1)C(=O)O; Ile(3ξ) = CCC(C)[C@H](N)C(=O)O; NMeV = CN[C@H](C(=O)O)C(C)C"}
{"molecule": "CCC(C)[C@@H]1NC(=O)[C@@H]2CCCN2C(=O)[C@H](Cc2ccccc2)N(C)C(=O)[C@H](Cc2ccccc2)NC(=O)[C@H](C(C)C)N(C)C(=O)[C@@H](C(C)CC)OC(=O)[C@H](C(C)(C)O)N(C)C(=O)[C@H](CC(C)C)NC(=O)[C@H](C(C)C)N(C)C1=O", "note": "(stereo partly drawn) [AbA, Aureobasidin A] (cyclo(F[NMeF]P[Ile(3ξ)][NMeV]L[NMeVal(β-OH)][X1][NMeV]))", "values": [{"measurement": "cidal to fungal pathogen", "setting": "Cryptococcus neoformans", "value": "cidal"}, {"measurement": "cidal to fungal pathogen", "setting": "Candida spp", "value": "cidal"}, {"measurement": "toxicity to fungal pathogen", "setting": "Aspergillus spp.", "value": "not toxic"}, {"measurement": "concentration at which toxic", "setting": "[1]", "value": "0.1 to 0.5", "unit": "µg/mL"}]}
